Counter-ions that a name gives are not always drawn.

Data on 37 molecules can be found in US11192877B2, “3-(5-hydroxy-1-oxoisoindolin-2-yl)piperidine-2,6-dione derivatives and uses thereof” (Novartis AG, priority 2018, dated 2021).

The target of the first test is IKZF2 (Helios) (Homo sapiens, UniProt Q96SW2+Q9UKS7). Description: Prolabel quantification of IKZF2 protein levels in 293GT cells. It counts as cell-based. The note with it: 24 h, Pro-label assay, 293GT cells, 10 μM, read-out: IKZF2 % protein reduction at 10 μM, 24 h.
Sequence of IKZF2 (Helios) (Q9UKS7 whole entry): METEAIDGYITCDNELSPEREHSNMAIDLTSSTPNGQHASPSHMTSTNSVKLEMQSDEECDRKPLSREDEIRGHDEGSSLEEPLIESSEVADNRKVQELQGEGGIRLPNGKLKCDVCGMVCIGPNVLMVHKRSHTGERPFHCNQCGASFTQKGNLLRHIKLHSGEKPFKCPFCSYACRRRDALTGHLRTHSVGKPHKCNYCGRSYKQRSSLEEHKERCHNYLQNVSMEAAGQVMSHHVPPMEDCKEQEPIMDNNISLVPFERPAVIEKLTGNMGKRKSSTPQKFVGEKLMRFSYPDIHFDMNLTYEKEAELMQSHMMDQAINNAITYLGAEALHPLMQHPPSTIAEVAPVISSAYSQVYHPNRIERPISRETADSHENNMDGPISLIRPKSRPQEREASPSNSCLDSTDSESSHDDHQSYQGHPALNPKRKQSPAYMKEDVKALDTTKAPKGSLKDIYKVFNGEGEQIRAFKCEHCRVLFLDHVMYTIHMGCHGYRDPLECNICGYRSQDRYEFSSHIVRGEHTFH
Sequence of IKZF2 (Helios) (Q96SW2 whole entry): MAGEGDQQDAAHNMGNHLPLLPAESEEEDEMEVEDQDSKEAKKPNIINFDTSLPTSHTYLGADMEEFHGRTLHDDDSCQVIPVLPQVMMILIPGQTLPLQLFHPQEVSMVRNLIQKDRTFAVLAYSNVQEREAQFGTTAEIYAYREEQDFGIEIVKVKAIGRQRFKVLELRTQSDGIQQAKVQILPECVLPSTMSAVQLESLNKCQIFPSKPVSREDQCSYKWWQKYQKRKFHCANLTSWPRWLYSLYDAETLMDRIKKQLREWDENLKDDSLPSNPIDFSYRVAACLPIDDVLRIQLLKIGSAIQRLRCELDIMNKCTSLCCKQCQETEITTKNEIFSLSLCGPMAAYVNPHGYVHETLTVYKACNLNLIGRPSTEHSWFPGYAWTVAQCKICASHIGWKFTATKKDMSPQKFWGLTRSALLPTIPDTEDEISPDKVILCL
Sequence of IKZF2 (Helios) (Q16531 whole entry partner): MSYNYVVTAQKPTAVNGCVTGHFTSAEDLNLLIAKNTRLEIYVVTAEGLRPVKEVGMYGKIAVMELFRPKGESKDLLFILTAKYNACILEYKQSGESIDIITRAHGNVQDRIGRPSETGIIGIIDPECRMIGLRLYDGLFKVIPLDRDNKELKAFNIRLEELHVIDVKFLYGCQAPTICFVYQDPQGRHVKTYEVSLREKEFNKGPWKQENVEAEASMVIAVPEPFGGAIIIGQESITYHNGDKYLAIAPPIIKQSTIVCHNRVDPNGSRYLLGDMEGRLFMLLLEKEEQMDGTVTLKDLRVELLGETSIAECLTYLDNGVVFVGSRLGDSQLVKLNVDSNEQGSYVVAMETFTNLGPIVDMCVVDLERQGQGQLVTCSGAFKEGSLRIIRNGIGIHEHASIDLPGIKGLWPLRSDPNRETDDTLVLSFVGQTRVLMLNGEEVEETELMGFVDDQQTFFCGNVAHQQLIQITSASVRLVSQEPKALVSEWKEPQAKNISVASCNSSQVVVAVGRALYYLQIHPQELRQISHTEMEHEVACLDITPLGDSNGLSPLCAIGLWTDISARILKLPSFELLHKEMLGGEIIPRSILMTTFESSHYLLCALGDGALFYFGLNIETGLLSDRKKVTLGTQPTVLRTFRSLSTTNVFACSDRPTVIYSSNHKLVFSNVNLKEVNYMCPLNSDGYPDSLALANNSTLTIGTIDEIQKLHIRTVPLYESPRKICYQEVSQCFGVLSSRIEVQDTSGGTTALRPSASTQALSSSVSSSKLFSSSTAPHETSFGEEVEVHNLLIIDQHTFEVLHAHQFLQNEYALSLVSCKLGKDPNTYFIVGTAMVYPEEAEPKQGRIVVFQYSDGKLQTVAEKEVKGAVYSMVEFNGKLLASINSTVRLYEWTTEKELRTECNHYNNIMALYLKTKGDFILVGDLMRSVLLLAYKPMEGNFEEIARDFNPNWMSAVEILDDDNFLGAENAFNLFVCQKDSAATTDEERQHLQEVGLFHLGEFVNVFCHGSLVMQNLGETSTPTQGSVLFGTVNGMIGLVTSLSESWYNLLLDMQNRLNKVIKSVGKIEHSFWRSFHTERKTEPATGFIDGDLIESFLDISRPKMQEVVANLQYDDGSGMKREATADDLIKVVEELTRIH
As to `CCN(CC)C1CC(C)(C)CC1Oc1ccc2c(c1)CN(C1CCC(=O)NC1=O)C2=O` (mixture of isomers) [I-172, Mixture of 3-(5-(((1S,2S)-2-(diethylamino)-4,4-dimethylcyclopentyl)oxy)-1-oxoisoindolin-2-yl)piperidine-2,6-dione and 3-(5-(((1R,2R)-2-(diethylamino)-4,4-dimethylcyclopentyl)oxy)-1-oxoisoindolin-2-yl)piperidine-2,6-dione], the IKZF2 % protein reduction at 10 µM is 58%.

As for `CN1CC[C@H]2CC[C@H](Oc3ccc4c(c3)CN(C3CCC(=O)NC3=O)C4=O)[C@H]21` (relative stereo) [I-3, 3-(5-(((3aR*,6S*,6aS*)-1-methyloctahydrocyclopenta[b]pyrrol-6-yl)oxy)-1-oxoisoindolin-2-yl)piperidine-2,6-dione], the IKZF2 % protein reduction at 10 µM was found to be 40%.

With `O=C1CCC(N2Cc3cc(O[C@@H]4CCCC[C@@H]4O)ccc3C2=O)C(=O)N1` (relative stereo) [I-37, 3-(5-(((1R*, 2S*)-2-hydroxycyclohexyl)oxy)-1-oxoisoindolin-2-yl)piperidine-2,6-dione], the IKZF2 % protein reduction at 10 µM stood at 0%.

Take `O=C1CCC(N2Cc3cc(O[C@H]4CC[C@@H]4NCc4ccccc4)ccc3C2=O)C(=O)N1` (single isomer, unassigned) [I-44]: the IKZF2 % protein reduction at 10 µM was 42%.

In the case of `CC1(C#N)CC(CN[C@H]2CCCC[C@@H]2Oc2ccc3c(c2)CN(C2CCC(=O)NC2=O)C3=O)C1` (single isomer, unassigned) [I-94], the IKZF2 % protein reduction at 10 µM was 84%.

On to `COC1CC(CNC2CCCCC2Oc2ccc3c(c2)CN(C2CCC(=O)NC2=O)C3=O)C1` (single isomer, unassigned) [I-99], for which the IKZF2 % protein reduction at 10 µM was 86%.

On to `CO[C@@H]1CCC[C@H]1N[C@H]1CCCC[C@@H]1Oc1ccc2c(c1)CN(C1CCC(=O)NC1=O)C2=O` (single isomer, unassigned) [I-118], for which the IKZF2 % protein reduction at 10 µM is 67%.

For `CO[C@H]1CCC[C@@H]1N[C@H]1CCCC[C@@H]1Oc1ccc2c(c1)CN(C1CCC(=O)NC1=O)C2=O` (single isomer, unassigned) [I-119], the IKZF2 % protein reduction at 10 µM came out at 59%.

As for `O=C1CCC(N2Cc3cc(OC4CCCCC4N4CCC(F)(F)C4)ccc3C2=O)C(=O)N1` (single isomer, unassigned) [I-134, 3-(5-((2-(3,3-difluoropyrrolidin-1-yl)cyclohexyl)oxy)-1-oxoisoindolin-2-yl)piperidine-2,6-dione], the IKZF2 % protein reduction at 10 µM amounted to 56%.

Turning to `CCN(CC1CC(C)(C#N)C1)C1CCCC1Oc1ccc2c(c1)CN(C1CCC(=O)NC1=O)C2=O` (single isomer, unassigned) [I-164], the IKZF2 % protein reduction at 10 µM came out at 71%.

Regarding `CC1(C)CCCN([C@H]2CCC[C@@H]2Oc2ccc3c(c2)CN(C2CCC(=O)NC2=O)C3=O)C1` (single isomer, unassigned) [I-168], the IKZF2 % protein reduction at 10 µM was 83%.

Turning to `CC1(C)CCCN([C@@H]2CCC[C@H]2Oc2ccc3c(c2)CN(C2CCC(=O)NC2=O)C3=O)C1` (single isomer, unassigned) [I-169], the IKZF2 % protein reduction at 10 µM came to 2%.

For the molecule `O=C1CCC(N2Cc3cc(OC4CCCC4N4CCC5(CCOC5)CC4)ccc3C2=O)C(=O)N1` (single isomer, unassigned) [I-176, 3-(5-((2-(2-oxa-8-azaspiro[4.5]decan-8-yl)cyclopentyl)oxy)-1-oxoisoindolin-2-yl)piperidine-2,6-dione], the IKZF2 % protein reduction at 10 µM worked out at 89%.

Consider `O=C1CCC(N2Cc3cc(OC4CCCC4N4CCCC5(CCC5)C4)ccc3C2=O)C(=O)N1` (single isomer, unassigned) [I-179, 3-(5-((2-(6-azaspiro[3.5]nonan-6-yl)cyclopentyl)oxy)-1-oxoisoindolin-2-yl)piperidine-2,6-dione], for which the IKZF2 % protein reduction at 10 µM was found to be 85%.

Regarding `O=C1CCC(N2Cc3cc(OC4CCCC4N4CCC5(CCOCC5)C4)ccc3C2=O)C(=O)N1` (single isomer, unassigned) [I-183, 3-(5-((2-(8-oxa-2-azaspiro[4.5]decan-2-yl)cyclopentyl)oxy)-1-oxoisoindolin-2-yl)piperidine-2,6-dione], the IKZF2 % protein reduction at 10 µM came to 84%.

`CO[C@@H]1CCN(C2CCCC2Oc2ccc3c(c2)CN(C2CCC(=O)NC2=O)C3=O)C1` (single isomer, unassigned) [I-192]: the IKZF2 % protein reduction at 10 µM was found to be 77%.

As to `CO[C@H]1CCN(C2CCCC2Oc2ccc3c(c2)CN(C2CCC(=O)NC2=O)C3=O)C1` (single isomer, unassigned) [I-193], the IKZF2 % protein reduction at 10 µM was 79%.

On to `O=C1CCC(N2Cc3cc(O[C@H]4CCC[C@@H]4N4CCCOCC4)ccc3C2=O)C(=O)N1` (stereo in doubt) [I-185, 3-(5-(((1S,2S)-2-(1,4-oxazepan-4-yl)cyclopentyl)oxy)-1-oxoisoindolin-2-yl)piperidine-2,6-dione], for which the IKZF2 % protein reduction at 10 µM was found to be 66%.

Regarding `N[C@H]1CCC[C@@H]1Oc1ccc2c(c1)CN(C1CCC(=O)NC1=O)C2=O` (stereo partly shown) [Cmpd I-12], the IKZF2 % protein reduction at 10 µM was 65%.

In the case of `CCN(CC(F)F)[C@H]1CCC[C@@H]1Oc1ccc2c(c1)CN(C1CCC(=O)NC1=O)C2=O` (stereo partly drawn) [I-1, 3-(5-(((1S,2S)-2-((2,2-difluoroethyl)(ethyl)amino)cyclopentyl)oxy)-1-oxoisoindolin-2-yl)piperidine-2,6-dione], the IKZF2 % protein reduction at 10 µM stood at 10%.

With `O=C1CCC(N2Cc3cc(O[C@H]4CCCC[C@H]4NCc4ccccc4)ccc3C2=O)C(=O)N1` (stereo partly drawn) [I-2, 3-(5-(((1S,2R)-2-(benzylamino)cyclohexyl)oxy)-1-oxoisoindolin-2-yl)piperidine-2,6-dione], the IKZF2 % protein reduction at 10 µM came to 10%.

Consider `CO[C@H]1CCCC[C@@H]1Oc1ccc2c(c1)CN(C1CCC(=O)NC1=O)C2=O` (stereo partly drawn) [I-4, 3-(5-(((1S,2S)-2-methoxycyclohexyl)oxy)-1-oxoisoindolin-2-yl)piperidine-2,6-dione], for which the IKZF2 % protein reduction at 10 µM was found to be 25%.

Regarding `O=C1CCC(N2Cc3cc(O[C@H]4CCC[C@@H]4N4CC(O)C4)ccc3C2=O)C(=O)N1` (stereo partly drawn) [I-5, 3-(5-(((1S,2S)-2-(3-hydroxyazetidin-1-yl)cyclopentyl)oxy)-1-oxoisoindolin-2-yl)piperidine-2,6-dione], the IKZF2 % protein reduction at 10 µM came out at 60%.

In the case of `O=C1CCC(N2Cc3cc(O[C@@H]4CCC[C@H]4O)ccc3C2=O)C(=O)N1` (stereo partly drawn) [I-6, 3-(5-(((1R,2R)-2-hydroxycyclopentyl)oxy)-1-oxoisoindolin-2-yl)piperidine-2,6-dione], the IKZF2 % protein reduction at 10 µM turned out to be 5%.

Take `CC(C)CN[C@H]1CCCC[C@@H]1Oc1ccc2c(c1)CN(C1CCC(=O)NC1=O)C2=O` (stereo partly drawn) [I-7, 3-(5-(((1S,2S)-2-(isobutylamino)cyclohexyl)oxy)-1-oxoisoindolin-2-yl)piperidine-2,6-dione]: the IKZF2 % protein reduction at 10 µM was 85%.

For the molecule `O=C1CCC(N2Cc3cc(O[C@H]4CCC[C@@H]4N4CCC(F)(F)CC4)ccc3C2=O)C(=O)N1` (stereo partly drawn) [I-8, 3-(5-(((1S,2S)-2-(4,4-difluoropiperidin-1-yl)cyclopentyl)oxy)-1-oxoisoindolin-2-yl)piperidine-2,6-dione], the IKZF2 % protein reduction at 10 µM was determined as 50%.

`O=C1CCC(N2Cc3cc(O[C@H]4CCC[C@@H]4OCc4ccccc4)ccc3C2=O)C(=O)N1` (stereo partly drawn) [I-9, 3-(5-(((1S,2S)-2-(benzyloxy)cyclopentyl)oxy)-1-oxoisoindolin-2-yl)piperidine-2,6-dione]: the IKZF2 % protein reduction at 10 µM turned out to be 0%.

As to `CCN(CC)[C@@H]1CCC[C@@H]1Oc1ccc2c(c1)CN(C1CCC(=O)NC1=O)C2=O` (stereo partly drawn) [I-10, 3-(5-(((1S,2R)-2-(diethylamino)cyclopentyl)oxy)-1-oxoisoindolin-2-yl)piperidine-2,6-dione], the IKZF2 % protein reduction at 10 µM is 0%.

For the molecule `O=C1CCC(N2Cc3cc(O[C@H]4CCCC[C@@H]4NCC4(C(F)(F)F)CC4)ccc3C2=O)C(=O)N1` (stereo partly drawn) [I-11, 3-(1-oxo-5-(((1S,2S)-2-(((1-(trifluoromethyl)cyclopropyl)methyl)amino)cyclohexyl)oxy)isoindolin-2-yl)piperidine-2,6-dione], the IKZF2 % protein reduction at 10 µM came to 75%.

In the case of `CCN(CC)[C@H]1CCC[C@@H]1Oc1ccc2c(c1)CN(C1CCC(=O)NC1=O)C2=O` (stereo partly drawn) [I-13, 3-(5-(((1S,2S)-2-(diethylamino)cyclopentyl)oxy)-1-oxoisoindolin-2-yl)piperidine-2,6-dione], the IKZF2 % protein reduction at 10 µM was determined as 85%.

On to `CCN(CC)[C@H]1CCCC[C@@H]1Oc1ccc2c(c1)CN(C1CCC(=O)NC1=O)C2=O` (stereo partly drawn) [I-14, 3-(5-(((1S,2S)-2-(diethylamino)cyclohexyl)oxy)-1-oxoisoindolin-2-yl)piperidine-2,6-dione], for which the IKZF2 % protein reduction at 10 µM is 60%.

Consider `O=C1CCC(N2Cc3cc(O[C@H]4CCC[C@@H]4N4CC5CCC(C5)C4)ccc3C2=O)C(=O)N1` (stereo partly drawn) [I-16, 3-(5-(((1S,2S)-2-(3-azabicyclo[3.2.1]octan-3-yl)cyclopentyl)oxy)-1-oxoisoindolin-2-yl)piperidine-2,6-dione], for which the IKZF2 % protein reduction at 10 µM is 85%.

Staying with this test, now noted: 24 h, read-out: IKZF2 % protein reduction at 10 μM, 24 h.
As to `O=C1CCC(N2Cc3cc(O[C@H]4CCC[C@@H]4N4CCSCC4)ccc3C2=O)C(=O)N1` (stereo in doubt) [I-184, 3-(1-oxo-5-(((1S,2S)-2-thiomorpholinocyclopentyl)oxy)isoindolin-2-yl)piperidine-2,6-dione], the IKZF2 % protein reduction at 10 µM turned out to be 38%.

Consider `N[C@H]1CCCC[C@@H]1Oc1ccc2c(c1)CN(C1CCC(=O)NC1=O)C2=O` (stereo partly drawn) [I-15, 3-(5-(((1S,2S)-2-aminocyclohexyl)oxy)-1-oxoisoindolin-2-yl)piperidine-2,6-dione hydrochloride], for which the IKZF2 % protein reduction at 10 µM came out at 50%.

Staying with this test, now noted: Pro-label assay, 293GT cells, 10 μM.
As for “3-(1-oxo-5-(((1S,2S)-2-phenoxycyclohexyl)oxy)isoindolin-2-yl)piperidine-2,6-dione and 3-(1-oxo-5-(((1R,2R)-2-phenoxycyclohexyl)oxy)isoindolin-2-yl)piperidine-2,6-dione [I-19]”, the “IKZF2 % protein reduction at 10 μM, 24 h” value came to 10%.

As for `COC1CC(CNC2CCCCC2Oc2ccc3c(c2)CN(C2CCC(=O)NC2=O)C3=O)C1` (single isomer, unassigned) [I-100], the “IKZF2 % protein reduction at 10 μM, 24 h” value is recorded as 86%.

With `CCN(CC1CC(C)(C#N)C1)C1CCCC1Oc1ccc2c(c1)CN(C1CCC(=O)NC1=O)C2=O` (single isomer, unassigned) [I-165], the “IKZF2 % protein reduction at 10 μM, 24 h” value is 72%.
